# Data reported in patent publication US6649398B2, “Method for inducing bacterial growth using autoinducers” (University of Leicester, priority 1997, dated 2003).
# Experiments:
# [1] = test system: Xanthomonas maltophilia; test: Growth response in serum-SAPI medium (CFU/ml); format: cell-based; details: control 1.7 × 10^5
# Procedure: (§1) Bacteria (approximately 50-500 cfu/ml) are inoculated into SAPI minimal medium (6.25 mM NH4NO3, 1.84 mM KH2PO4, 3.35 mM KCl, 1.01 mM MgSO4 and 2.77 mM glucose, pH 7.5) supplemented with 30% (v/v) adult bovine serum (Sigma), and either 1% (v/v) previously made E.coli autoinducer or 50 mM norepinephrine.
# (§2) The cultures are grown statically (i.e. without aeration by shaking) for 24 hours at 37° C. in a 5% CO2 incubator.
# (§3) It has been shown that certain of these bacteria respond to norepinephrine (NE) and synthesise their own autoinducers, all of which are heat-stable low molecular weight molecules (less than 1000 Da) similar in size to the E. coli autoinducer (Table 4, FIG. 5).
# [2] = test system: Enterococcus faecium; test: Growth response in serum-SAPI medium (CFU/ml); format: cell-based; details: control 2.1 × 10^5
# Procedure: as §1, §2, §3
# [3] = test system: Staphylococcus aureus; test: Growth response in serum-SAPI medium (CFU/ml); format: cell-based; details: control 3.2 × 10^5
# Procedure: as §1, §2, §3
# [4] = test system: Yersinia entercolitica; test: Growth response in serum-SAPI medium (CFU/ml); format: cell-based; details: control 4.2 × 10^4
# Procedure: as §1, §2, §3
# [5] = test system: Acinetobacter lwoffii; test: Growth response in serum-SAPI medium (CFU/ml); format: cell-based; details: control 1.0 × 10^4
# Procedure: as §1, §2, §3
# [6] = test system: Enterobacter cloacae; test: Growth response in serum-SAPI medium (CFU/ml); format: cell-based; details: control 7.2 × 10^6
# Procedure: as §1, §2, §3
# [7] = test system: Proteus mirabilis; test: Growth response in serum-SAPI medium (CFU/ml); format: cell-based; details: control 1.1 × 10^3
# Procedure: as §1, §2, §3
# [8] = test system: Pseudomonas aeruginosa; test: Growth response in serum-SAPI medium (CFU/ml); format: cell-based; details: control 3.7 × 10^4
# Procedure: as §1, §2, §3
# [9] = test system: Citrobacter freundii; test: Growth response in serum-SAPI medium (CFU/ml); format: cell-based; details: control 1.9 × 10^6
# Procedure: as §1, §2, §3
# [10] = test system: Hafnia alvei; test: Growth response in serum-SAPI medium (CFU/ml); format: cell-based; details: control 1.2 × 10^4
# Procedure: as §1, §2, §3
# [11] = test system: Listeria monocytogenes; test: Growth response in serum-SAPI medium (CFU/ml); format: cell-based; details: control 2.5 × 10^5
# Procedure: as §1, §2, §3
# [12] = test system: Klebsiella oxytoca; test: Growth response in serum-SAPI medium (CFU/ml); format: cell-based; details: control 4.2 × 10^4
# Procedure: as §1, §2, §3
# [13] = test system: Streptococcus sanguis; test: Growth response in serum-SAPI medium (CFU/ml); format: cell-based; details: control 2.1 × 10^4
# Procedure: as §1, §2, §3
# [14] = test system: Staphylococcus albus; test: Growth response in serum-SAPI medium (CFU/ml); format: cell-based; details: control 1.1 × 10^3
# Procedure: as §1, §2, §3
# [15] = test system: Klebsiella pneumoniae; test: Growth response in serum-SAPI medium (CFU/ml); format: cell-based; details: control 3.1 × 10^4
# Procedure: as §1, §2, §3
# [16] = test system: Serratia marcescens; test: Growth response in serum-SAPI medium (CFU/ml); format: cell-based; details: control 8.5 × 10^7
# Procedure: as §1, §2, §3
# [17] = test system: Streptococcus dysgalactiae; test: Growth response in serum-SAPI medium (CFU/ml); format: cell-based; details: control 2.0 × 10^7
# Procedure: as §1, §2, §3
# [18] = test system: Enterobacter aerogenes; test: Growth response in serum-SAPI medium (CFU/ml); format: cell-based; details: control 3.2 × 10^8
# Procedure: as §1, §2, §3
# [19] = test system: Salmonella enterica sv Enteriditis; test: Growth response in serum-SAPI medium (CFU/ml); format: cell-based; details: control 7.5 × 10^5
# Procedure: as §1, §2, §3
# [20] = test system: Enterobacter sakazaki; test: Growth response in serum-SAPI medium (CFU/ml); format: cell-based; details: control 3.0 × 10^6
# Procedure: as §1, §2, §3
# [21] = test system: Escherichia coli; test: Growth response in serum-SAPI medium (CFU/ml); format: cell-based; details: control 7.5 × 10^4
# Procedure: as §1, §2, §3
# [22] = test system: Enterococcus faecalis; test: Growth response in serum-SAPI medium (CFU/ml); format: cell-based; details: control 5.0 × 10^5
# Procedure: as §1, §2, §3
# [23] = test system: Enterobacter agglomerans; test: Growth response in serum-SAPI medium (CFU/ml); format: cell-based; details: control 2.9 × 10^4
# Procedure: as §1, §2, §3
# [24] = test system: Morganella morganii; test: Growth response in serum-SAPI medium (CFU/ml); format: cell-based; details: control 3.7 × 10^4
# Procedure: as §1, §2, §3
# [25] = test system: bacteria; test: Growth stimulation assay (serum assay); format: cell-based; details: for Stimulation of growth and autoinducer production in serum assay: equivalent mM concentrations
# [26] = cited from earlier work
structure (smiles),measurement,setting,value
"NC[C@H](O)c1ccc(O)c(O)c1 [NE, norepinephrine]","Response (growth), CFU/ml",[1],2.1 × 10^6 CFU/ml
same,"Response (growth), CFU/ml",[2],5.6 × 10^6 CFU/ml
same,"Response (growth), CFU/ml",[3],5.7 × 10^5 CFU/ml
same,"Response (growth), CFU/ml",[4],1.7 × 10^8 CFU/ml
same,"Response (growth), CFU/ml",[5],2.9 × 10^7 CFU/ml
same,"Response (growth), CFU/ml",[6],1.1 × 10^8 CFU/ml
same,"Response (growth), CFU/ml",[7],1.0 × 10^7 CFU/ml
same,"Response (growth), CFU/ml",[8],2.1 × 10^7 CFU/ml
same,"Response (growth), CFU/ml",[9],3.5 × 10^7 CFU/ml
same,"Response (growth), CFU/ml",[10],3.7 × 10^8 CFU/ml
same,"Response (growth), CFU/ml",[11],3.5 × 10^6 CFU/ml
same,"Response (growth), CFU/ml",[12],1.6 × 10^8 CFU/ml
same,"Response (growth), CFU/ml",[13],1.1 × 10^4 CFU/ml
same,"Response (growth), CFU/ml",[14],1.5 × 10^7 CFU/ml
same,"Response (growth), CFU/ml",[15],6.7 × 10^7 CFU/ml
same,"Response (growth), CFU/ml",[16],3.4 × 10^8 CFU/ml
same,"Response (growth), CFU/ml",[17],2.4 × 10^6 CFU/ml
same,"Response (growth), CFU/ml",[18],5.5 × 10^8 CFU/ml
same,"Response (growth), CFU/ml",[19],1.0 × 10^8 CFU/ml
same,"Response (growth), CFU/ml",[20],4.1 × 10^7 CFU/ml
same,"Response (growth), CFU/ml",[21],5.9 × 10^8 CFU/ml
same,"Response (growth), CFU/ml",[22],5.5 × 10^6 CFU/ml
same,"Response (growth), CFU/ml",[23],6.1 × 10^6 CFU/ml
same,"Response (growth), CFU/ml",[24],1.6 × 10^7 CFU/ml
"CCN(CC)CC.O=C(O)O [TEAB, triethylammonium bicarbonate]",Inhibition in the growth stimulation assays,[25]; concentrations up to 20 mM,not inhibitory
CC(=O)O [acetate],Stimulation of growth and autoinducer production in serum assay,[25],not
Cl.N [ammonium chloride],Stimulation of growth and autoinducer production in serum assay,[25],not
N.N.O=S(=O)(O)O [ammonium sulfate],Stimulation of growth and autoinducer production in serum assay,[25],can stimulate growth and autoinducer production
O=C(O)O [bicarbonate],Stimulation of growth and autoinducer production in serum assay,[25],not
O=C(N[C@H]1COC(=O)[C@@H](NC(=O)c2cccc(O)c2O)COC(=O)[C@@H](NC(=O)c2cccc(O)c2O)COC1=O)c1cccc(O)c1O [enterochelin],Solubility in organic solvents,[26],soluble in organic solvents
O=CO [formate],Stimulation of growth and autoinducer production in serum assay,[25],not
